Assay results: US12655116B2, “Substituted isophthalic acid diamides” (Bayer Aktiengesellschaft, priority 2020, dated 2026)

Legend:
[1] = tested on: POLCO; assay: Pre-emergence herbicidal action against POLCO; assay type: in vivo, Polygonum convolvulus; settings: Fallopia convolvulus, 504 h; for pest or weed control at 80 g/ha: dosage 80 g/ha
Summary of the method: (§1)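 Visual rating at 3 weeks vs untreated pots; 0–100% scale, 100% = plants died. Treatment: aqueous WP/EC spray onto covering soil, 600–800 l/ha, 0.2% wetter, seeds in sandy loam.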

[2] = tested on: AVEFA; assay: Pre-emergence herbicidal action against AVEFA; assay type: in vivo, Avena fatua; settings: Avena fatua, 504 h, pre-emergence
Summary of the method: as §1

[3] = tested on: ABUTH; assay: Pre-emergence herbicidal action against ABUTH; assay type: in vivo, Abutilon theophrasti; settings: Abutilon theophrasti, 504 h; for pest or weed control at 80 g/ha: scored visually after 3 weeks vs untreated controls (100% = plants have died, 0% = like control plants)
Summary of the method: as §1

[4] = tested on: ALOMY; assay: Post-emergence herbicidal action against ALOMY; assay type: in vivo, Alopecurus myosuroides; settings: Alopecurus myosuroides, 504 h, dosage 20 g/ha, visual assessment about 3 weeks after treatment vs untreated controls
Summary of the method: (§2)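 Greenhouse pot plants in sandy loam were sprayed at the one-leaf stage, 2 to 3 weeks after sowing, with WP or EC formulations as aqueous suspension or emulsion (600 to 800 l/ha water, 0.2% wetting agent). About 3 weeks later, damage was scored visually against untreated controls as % action (100% = dead, 0% = like control).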

[5] = tested on: SETVI; assay: Post-emergence herbicidal action against SETVI; assay type: in vivo, Setaria viridis; settings: Setaria viridis, 504 h; for pest or weed control at 20 g/ha: dosage 20 g/ha
Summary of the method: as §2

[6] = tested on: ECHCG; assay: Pre-emergence herbicidal action against ECHCG; assay type: in vivo, Echinochloa crus-galli; settings: Echinochloa crus-galli, 504 h
Summary of the method: as §1

[7] = tested on: AVEFA; assay: Post-emergence herbicidal action against AVEFA; assay type: in vivo, Avena fatua; settings: Avena fatua, 504 h, 20 g/ha, visual assessment about 3 weeks after treatment, 100% = plants have died, 0% = like control plants
Summary of the method: as §2

[8] = tested on: VERPE; assay: Pre-emergence herbicidal action against VERPE; assay type: in vivo, Veronica persica; settings: Veronica persica, 504 h, dosage 80 g/ha
Summary of the method: as §1

[9] = tested on: ECHCG; assay: Post-emergence herbicidal action against ECHCG; assay type: in vivo, Echinochloa crus-galli; settings: Echinochloa crus-galli, 504 h; for pest or weed control at 5 g/ha: dosage 5 g/ha; for pest or weed control at 20 g/ha: dosage 20 g/ha
Summary of the method: as §2

[10] = tested on: LOLRI; assay: Pre-emergence herbicidal action against LOLRI; assay type: in vivo, Lolium rigidum; settings: Lolium rigidum, 504 h, 80 g/ha
Summary of the method: as §1

[11] = tested on: PHBPU; assay: Pre-emergence herbicidal action against PHBPU; assay type: in vivo, Pharbitis purpurea; settings: Ipomoea purpurea, 504 h; for pest or weed control at 80 g/ha: dosage 80 g/ha
Summary of the method: as §1

[12] = tested on: MATIN; assay: Pre-emergence herbicidal action against MATIN; assay type: in vivo, Matricaria inodora; settings: Tripleurospermum inodorum, 504 h; for pest or weed control at 20 g/ha: dosage 20 g/ha; for pest or weed control at 80 g/ha: dosage 80 g/ha
Summary of the method: as §1

[13] = tested on: DIGSA; assay: Post-emergence herbicidal action against DIGSA; assay type: in vivo, Digitaria sanguinalis; settings: Digitaria sanguinalis, 504 h
Summary of the method: as §2

[14] = tested on: SETVI; assay: Pre-emergence herbicidal action against SETVI; assay type: in vivo, Setaria viridis; settings: Setaria viridis, 504 h; for pest or weed control at 80 g/ha: dosage 80 g/ha
Summary of the method: as §1

[15] = tested on: PHBPU; assay: Post-emergence herbicidal action against PHBPU; assay type: in vivo, Pharbitis purpurea; settings: Ipomoea purpurea, 504 h; for pest or weed control at 20 g/ha: dosage 20 g/ha
Summary of the method: as §2

[16] = tested on: AMARE; assay: Post-emergence herbicidal action against AMARE; assay type: in vivo, Amaranthus retroflexus; settings: Amaranthus retroflexus, 504 h, 20 g/ha, visual assessment about 3 weeks after treatment, 100% = plants have died, 0% = like control plants
Summary of the method: as §2

[17] = tested on: AMARE; assay: Pre-emergence herbicidal action against AMARE; assay type: in vivo, Amaranthus retroflexus; settings: Amaranthus retroflexus, 504 h, scored visually after 3 weeks vs untreated controls, 100% = plants have died, 0% = like control plants
Summary of the method: as §1

[18] = tested on: ABUTH; assay: Post-emergence herbicidal action against ABUTH; assay type: in vivo, Abutilon theophrasti; settings: Abutilon theophrasti, 504 h, visual assessment about 3 weeks after treatment vs untreated controls
Summary of the method: as §2

[19] = tested on: DIGSA; assay: Pre-emergence herbicidal action against DIGSA; assay type: in vivo, Digitaria sanguinalis; settings: Digitaria sanguinalis, 504 h; for pest or weed control at 80 g/ha: dosage 80 g/ha
Summary of the method: as §1

[20] = tested on: VIOTR; assay: Pre-emergence herbicidal action against VIOTR; assay type: in vivo, Viola tricolor; settings: Viola tricolor, 504 h; for pest or weed control at 80 g/ha: dosage 80 g/ha
Summary of the method: as §1

[21] = tested on: VIOTR; assay: Post-emergence herbicidal action against VIOTR; assay type: in vivo, Viola tricolor; settings: Viola tricolor, 504 h, 20 g/ha
Summary of the method: as §2

[22] = tested on: ALOMY; assay: Pre-emergence herbicidal action against ALOMY; assay type: in vivo, Alopecurus myosuroides; settings: Alopecurus myosuroides, 504 h, pre-emergence; for pest or weed control at 80 g/ha: scored visually after 3 weeks vs untreated controls (100% = plants have died, 0% = like control plants)
Summary of the method: as §1

[23] = tested on: VERPE; assay: Post-emergence herbicidal action against VERPE; assay type: in vivo, Veronica persica; settings: Veronica persica, 504 h, 20 g/ha
Summary of the method: as §2

[24] = tested on: MATIN; assay: Post-emergence herbicidal action against MATIN; assay type: in vivo, Matricaria inodora; settings: Tripleurospermum inodorum, 504 h
Summary of the method: as §2

[25] = 20 g/ha, scored visually after 3 weeks, 100% = plants have died, 0% = like control plants

Structure (SMILES) | pest or weed control at 80 g/ha [1] | pest or weed control at 80 g/ha [2] | pest or weed control at 80 g/ha [3] | pest or weed control at 20 g/ha [4] | pest or weed control at 20 g/ha [5] | pest or weed control at 20 g/ha [6] | pest or weed control at 80 g/ha [6] | pest or weed control at 20 g/ha [7] | pest or weed control at 80 g/ha [8] | pest or weed control at 5 g/ha [9] | pest or weed control at 20 g/ha [9] | pest or weed control at 80 g/ha [10] | pest or weed control at 80 g/ha [11] | pest or weed control at 20 g/ha [12] | pest or weed control at 80 g/ha [12] | pest or weed control at 80 g/ha [14] | pest or weed control at 20 g/ha [15] | pest or weed control at 20 g/ha [16] | pest or weed control at 20 g/ha [17] | pest or weed control at 80 g/ha [17] | other results
CNC(=O)c1c(C(F)F)ccc(C(=O)Nc2nnnn2C)c1Br [Example 1-225] | 90% | 80% | 80% | 90% | 100% | 90% | 100% | 80% | 80% | 90% | 100% | 80% | 100% | 90% | 100% | 100% | 80% | 100% | 100% | 100% | pest or weed control at 20 g/ha [2, 25]: 80%; pest or weed control at 5 g/ha ([5]; dosage 5 g/ha): 90%; pest or weed control at 5 g/ha ([13]; 5 g/ha): 90%; pest or weed control at 20 g/ha ([13]; 20 g/ha): 90%; pest or weed control at 20 g/ha ([14]; dosage 20 g/ha): 90%; pest or weed control at 5 g/ha ([18]; dosage 5 g/ha): 80%; pest or weed control at 20 g/ha ([18]; dosage 20 g/ha): 80%; pest or weed control at 80 g/ha [19]: 90%; pest or weed control at 80 g/ha [20]: 100%; pest or weed control at 20 g/ha [21]: 80%; pest or weed control at 80 g/ha [22]: 100%; pest or weed control at 20 g/ha [23]: 90%
CC(C)NC(=O)c1c(C(F)(F)F)ccc(C(=O)Nc2nnnn2C)c1Cl [Example 1-137] | 100% | 90% | 100% | 90% | 80% | 80% | 100% | 80% | 90% | 90% | 90% | 90% | 90% | 100% | 100% | 100% | 80% | 90% | 100% | 100% | pest or weed control at 20 g/ha ([1]; dosage 20 g/ha): 80%; pest or weed control at 5 g/ha ([24]; dosage 5 g/ha): 80%; pest or weed control at 20 g/ha ([24]; dosage 20 g/ha): 80%; pest or weed control at 20 g/ha ([3]; dosage 20 g/ha, scored visually after 3 weeks vs untreated controls, 100% = plants have died, 0% = like control plants, read-out: Pre-emergence action against ABUTH (herbicidal activity in percent)): 100%; pest or weed control at 20 g/ha ([11]; dosage 20 g/ha): 80%; pest or weed control at 5 g/ha ([15]; dosage 5 g/ha): 80%; pest or weed control at 20 g/ha ([19]; dosage 20 g/ha): 100%; pest or weed control at 80 g/ha [19]: 100%; pest or weed control at 20 g/ha ([20]; dosage 20 g/ha): 90%; pest or weed control at 80 g/ha [20]: 100%; pest or weed control at 80 g/ha [22]: 90%; pest or weed control at 20 g/ha [22, 25]: 90%
